According to article PMC9268025, “GC-MS/MS Quantification of EGFR Inhibitors, β-Sitosterol, Betulinic Acid, (+) Eriodictyol, (+) Epipinoresinol, and Secoisolariciresinol, in Crude Extract and Ethyl Acetate Fraction of Thonningia sanguinea” (Molecules, 2022):

Biological target: epidermal growth factor receptor (EGFR) (Homo sapiens, UniProt P00533)
Test: ADP-Glo EGFR kinase inhibition assay (Promega V9261), eight concentrations
Type: biochemical

Chain of epidermal growth factor receptor (EGFR) (P00533 25-1210): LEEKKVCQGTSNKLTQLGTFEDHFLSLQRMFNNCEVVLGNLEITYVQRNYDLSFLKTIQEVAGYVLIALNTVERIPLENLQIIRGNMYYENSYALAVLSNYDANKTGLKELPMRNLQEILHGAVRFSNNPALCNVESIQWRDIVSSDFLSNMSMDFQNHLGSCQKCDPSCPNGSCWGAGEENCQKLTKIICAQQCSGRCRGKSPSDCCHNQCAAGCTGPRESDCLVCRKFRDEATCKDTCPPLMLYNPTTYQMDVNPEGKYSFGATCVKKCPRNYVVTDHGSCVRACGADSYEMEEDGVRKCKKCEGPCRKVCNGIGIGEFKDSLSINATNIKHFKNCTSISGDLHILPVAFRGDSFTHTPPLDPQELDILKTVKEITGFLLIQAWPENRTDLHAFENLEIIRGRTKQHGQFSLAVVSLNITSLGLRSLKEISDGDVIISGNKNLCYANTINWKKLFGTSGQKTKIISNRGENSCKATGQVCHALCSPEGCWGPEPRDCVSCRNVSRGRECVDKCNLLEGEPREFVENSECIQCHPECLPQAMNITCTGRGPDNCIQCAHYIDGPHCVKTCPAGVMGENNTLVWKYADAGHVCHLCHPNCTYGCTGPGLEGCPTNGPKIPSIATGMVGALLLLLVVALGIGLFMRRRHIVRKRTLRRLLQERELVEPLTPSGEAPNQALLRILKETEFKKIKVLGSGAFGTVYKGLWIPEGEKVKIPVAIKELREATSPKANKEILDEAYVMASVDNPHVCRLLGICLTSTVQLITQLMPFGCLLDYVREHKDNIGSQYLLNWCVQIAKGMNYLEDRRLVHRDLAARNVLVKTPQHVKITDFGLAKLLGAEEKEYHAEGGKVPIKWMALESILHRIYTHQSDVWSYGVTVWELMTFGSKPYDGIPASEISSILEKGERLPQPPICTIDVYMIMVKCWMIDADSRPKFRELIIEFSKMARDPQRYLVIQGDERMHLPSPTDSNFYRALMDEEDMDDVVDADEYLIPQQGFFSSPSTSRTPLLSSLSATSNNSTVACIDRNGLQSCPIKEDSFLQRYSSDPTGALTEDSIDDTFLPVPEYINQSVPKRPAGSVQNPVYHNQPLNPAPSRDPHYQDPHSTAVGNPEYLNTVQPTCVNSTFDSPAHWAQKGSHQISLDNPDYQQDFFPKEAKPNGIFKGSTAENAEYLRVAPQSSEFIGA

IC50 [nM]	Structure (SMILES)
76.2	O=C1C[C@@H](c2ccc(O)c(O)c2)Oc2cc(O)cc(O)c21 [(+) Eriodictyol]
80.3	COc1cc(C[C@@H](CO)[C@H](CO)Cc2ccc(O)c(OC)c2)ccc1O [Secoisolariciresinol]
